This experiment relates to S. aureus strains wt, recAmut, grlA542, grlA542recAmut. As to the kind of experiment: MIC for S. aureus wt, recAmut, grlA542 and grlA542recAmut strains. The experiment is classed as cell-based. Conditions: Staphylococcus aureus.

In brackets after ≈: the same amount, converted by molar mass.

Turning to `CCn1cc(C(=O)O)c(=O)c2cc(F)c(N3CCNCC3)cc21` [Nor, norfloxacin], the minimum inhibitory concentration (MIC) reads like this: (strain grlA542 (quinolone resistant)) 12.5 µg/mL (≈ 39.1 µM); (strain grlA542recAmut) 1.56 µg/mL (≈ 4.89 µM); (strain recAmut) 0.19 µg/mL (≈ 0.595 µM); (strain wt) 0.78 µg/mL (≈ 2.44 µM).

As a reminder, the MIC is the lowest concentration found to suppress growth.
